Measurements: US20260365671A1, “HETEROCYCLIC COMPOUND” (Takeda Pharmaceutical Company Limited, priority 2022, published 2026)

What was measured:
NF-κB pathway = assay: TNF-α assay (THP-1 cells differentiated to macrophages with IFN-γ, NF-κB pathway activated with LPS; ELISA); format: cell-based, Human; conditions: compound 30 min, 50 ng/mL LPS 3 hours
Description: (§1) The biological activity of Compound (I) with respect to NLRP3 was determined using the following in vitro methods.
TNF-α Assay (Reported as IC50)
Monocytic THP-1 cells (ATCC: TIB-202) were maintained in accordance with the provider's instructions in RPMI media (Life Technologies, Cat #A10491-01); RPMI was supplemented with 10% heat inactivated fetal bovine serum (Hyclone Cat #SH30396.03). The cells were differentiated into macrophages by the addition of 25 ng/mL IFN-γ for 24 hours at 37 °C/5% CO2. Media was exchanged with fresh media with no FBS. The cells were plated at 40,000 cells per well in 384-well flat-bottom cell culture plates (Costar 3764) containing compounds (added in 1:1000) in a 1:3.16 serial dilution series in DMSO and were incubated for 30 minutes at 37 °C/5% CO2. The NF-κB pathway was activated with the addition of 50 ng/mL LPS and the cells were incubated for 3 hours at 37 °C/5% CO2. At the end of the incubation period, supernatant ([…]) was removed, and […] were monitored using an ELISA (Human TNF-α ELISA, R&D systems, Cat #DY210) according to the manufacturer's instructions.
(§2) The IC50 values were calculated from a plot of percentage of inhibition versus the inhibitor concentration by a logistics curve fit according to: Y=[Bottom+(Top−Bottom)]/(1+10^[(Log IC50−X)·Hill Slope], where Y is the % inhibition at the inhibitor concentration, X, “Bottom” is the lowest inhibition value, i.e., 0%, “Top” is the maximum inhibition value, i.e., 100%, and the “Hill Slope” describes the slope of the sigmoidal curve between the “Bottom” and “Top” values. The curve fitting was conducted with XLfit (ver. 5.5.0.5, ID Business Solutions Limited) or internally developed software.
(§3) Table 2 lists in vitro biological assay data (IL-1β and TNF-α) for the compounds shown in the examples. These assays are described in the section entitled Biological Activity, above.

NLRP3 inflammasome = molecular target: T1, NLRP3 inflammasome (Homo sapiens, UniProt Q96P20); assay: IL-1β TR-FRET assay (THP-1 cells differentiated to macrophages with IFN-γ, LPS primed, ATP activated; HTRF); format: cell-based; conditions: THP-1 macrophages, 50 ng/mL LPS priming, compound 30 min, 20 mM ATP 2 hours
T1 construct: IL-1beta HTRF
Description: as §1
IL-1β TR-FRET Assay (Reported as IC50)
Monocytic THP-1 cells (ATCC: TIB-202) were maintained in accordance with the provider's instructions in RPMI media (Life Technologies, Cat #A10491-01); RPMI was supplemented with 10% heat inactivated fetal bovine serum (Corning, Cat #35-010-CV). The cells were differentiated into macrophages by the addition of 25 ng/mL IFN-γ (PeproTech, Cat #AF300-02-100UG) for 24 hours at 37 °C/5% CO2. Media was exchanged with fresh media with no FBS, and the cells were treated with 50 ng/mL LPS (priming step) (LPS-EK: Invivogen, Cat #tlrl-peklps). The cells were plated at 240,000 cells per well in 384-well flat-bottom cell culture plates (FALCON, Cat #353962) and were incubated for 24 hours at 37 °C/5% CO2. Compounds were serially diluted (half log dilutions) with DMSO and were finally diluted with Media with no FBS. The compounds were added to the cells in 384-well plates (added in 1:3) and then the plates were incubated for 30 minutes at 37 °C/5% CO2. The NLRP3 inflammasome was activated with the addition of 20 mM ATP (Sigma Cat #A3377-25G) and the cells were incubated for 2 hours at 37 °C/5% CO2. At the end of the incubation period, 30 μL supernatant was transferred to another 384-well plate and mixed on a plate shaker for 1 minutes. The supernatant was mixed with HTRF Antibody (Human IL1 beta kit, Cisbio, 62HIL1BPEH) in assay plates (Greiner Bio-One, Cat #784075) and the assay plates were incubated in shading box at room temperature for 16-24 hours. HTRF signal was measured by EnVision (Perkinelmer) in accordance with the manufacturer's instructions.
as §2, §3

[1] = Homo sapiens, THP-1, THP-1 macrophages

T1 sequence (Q96P20 whole entry): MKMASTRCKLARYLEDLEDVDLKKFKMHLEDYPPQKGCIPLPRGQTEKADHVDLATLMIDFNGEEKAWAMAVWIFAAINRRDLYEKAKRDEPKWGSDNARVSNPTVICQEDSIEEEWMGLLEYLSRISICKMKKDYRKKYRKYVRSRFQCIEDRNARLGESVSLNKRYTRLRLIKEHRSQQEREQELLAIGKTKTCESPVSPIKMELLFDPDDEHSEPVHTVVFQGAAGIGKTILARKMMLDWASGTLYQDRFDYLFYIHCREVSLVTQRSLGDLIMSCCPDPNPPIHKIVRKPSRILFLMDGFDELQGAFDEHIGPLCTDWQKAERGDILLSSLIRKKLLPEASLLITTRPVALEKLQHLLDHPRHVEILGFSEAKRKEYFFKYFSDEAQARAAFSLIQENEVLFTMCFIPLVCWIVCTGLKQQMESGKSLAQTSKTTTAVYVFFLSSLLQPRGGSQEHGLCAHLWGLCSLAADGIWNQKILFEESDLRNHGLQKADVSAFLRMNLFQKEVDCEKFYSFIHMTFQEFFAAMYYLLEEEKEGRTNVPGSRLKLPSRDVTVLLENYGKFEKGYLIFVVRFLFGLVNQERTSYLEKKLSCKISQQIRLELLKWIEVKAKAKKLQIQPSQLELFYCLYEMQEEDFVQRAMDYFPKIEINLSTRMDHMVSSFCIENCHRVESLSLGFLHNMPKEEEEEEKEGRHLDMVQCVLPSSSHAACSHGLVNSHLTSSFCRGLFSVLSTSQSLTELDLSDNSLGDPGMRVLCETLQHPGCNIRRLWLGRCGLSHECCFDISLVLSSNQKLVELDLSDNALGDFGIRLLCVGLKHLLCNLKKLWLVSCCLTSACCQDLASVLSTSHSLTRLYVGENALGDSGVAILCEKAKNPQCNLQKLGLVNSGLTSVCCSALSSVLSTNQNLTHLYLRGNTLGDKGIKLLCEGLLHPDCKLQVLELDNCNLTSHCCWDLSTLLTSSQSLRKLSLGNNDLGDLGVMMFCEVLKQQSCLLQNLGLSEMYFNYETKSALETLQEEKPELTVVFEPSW

SMILES | IC50 (NF-κB pathway; [1]) | IC50 (NLRP3 inflammasome) | IC50 (NF-κB pathway; THP-1 macrophages)
Cc1cc(C)c(-n2cc3sc(N[C@H]4CN(C(=O)C(C)(C)O)C[C@@H]4F)nc3n2)c(O)c1 (racemic) [Example 123, racemic mixture of 1-[(3R,4R)-3-fluoro-4-{[2-(2-hydroxy-4,6-dimethylphenyl)-2H-pyrazolo[3,4-d][1,3]thiazol-5-yl]amino}pyrrolidin-1-yl]-2-hydroxy-2-methylpropan-1-one and 1-[(3S,4S)-3-fluoro-4-{[2-(2-hydroxy-4,6-dimethylphenyl)-2H-pyrazolo[3,4-d][1,3]thiazol-5-yl]amino}pyrrolidin-1-yl]-2-hydroxy-2-methylpropan-1-one] | > 30 µM | 390 nM | –
Cc1cc(C)c(-n2cc3sc(N[C@H]4CN(C(=O)C5(O)CC5)C[C@@H]4F)nc3n2)c(O)c1 (racemic) [Example 124, racemic mixture of [(3R,4R)-3-fluoro-4-{[2-(2-hydroxy-4,6-dimethylphenyl)-2H-pyrazolo[3,4-d][1,3]thiazol-5-yl]amino}pyrrolidin-1-yl](1-hydroxycyclopropyl) methanone and [(3S,4S)-3-fluoro-4-{[2-(2-hydroxy-4,6-dimethylphenyl)-2H-pyrazolo[3,4-d][1,3]thiazol-5-yl]amino}pyrrolidin-1-yl](1-hydroxycyclopropyl)methanone] | > 30 µM | 340 nM | –
Cc1cc(C)c(-n2cc3sc(N[C@H]4CN(C(=O)C5(C#N)CC5)C[C@@H]4F)nc3n2)c(O)c1 (racemic) [Example 125, racemic mixture of 1-[(3R,4R)-3-fluoro-4-{[2-(2-hydroxy-4,6-dimethylphenyl)-2H-pyrazolo[3,4-d][1,3]thiazol-5-yl]amino}pyrrolidine-1-carbonyl]cyclopropane-1-carbonitrile and 1-[(3S,4S)-3-fluoro-4-{[2-(2-hydroxy-4,6-dimethylphenyl)-2H-pyrazolo[3,4-d][1,3]thiazol-5-yl]amino}pyrrolidine-1-carbonyl]cyclopropane-1-carbonitrile] | > 30 µM | 460 nM | –
Cc1cc(O)c(-n2cc3sc(N[C@@H]4C[C@@H](F)CN(C)C4)nc3n2)c(C2CC2(F)F)c1 (single isomer, unassigned) [Example 126, 3-[(R)-2,2-difluorocyclopropyl]-2-(5-{[(3R,5R)-5-fluoro-1-methylpiperidin-3-yl]amino}-2H-pyrazolo[3,4-d][1,3]thiazol-2-yl)-5-methylphenol or 3-[(S)-2,2-difluorocyclopropyl]-2-(5-{[(3R,5R)-5-fluoro-1-methylpiperidin-3-yl]amino}-2H-pyrazolo[3,4-d][1,3]thiazol-2-yl)-5-methylphenol (tR2)] | > 30 µM | 3.8 nM | –
Cc1cc(O)c(-n2cc3sc(N[C@@H]4C[C@@H](F)CN(C)C4)nc3n2)c(C2CC2(F)F)c1 (single isomer, unassigned) [Example 127, 3-[(R)-2,2-difluorocyclopropyl]-2-(5-{[(3R,5R)-5-fluoro-1-methylpiperidin-3-yl]amino}-2H-pyrazolo[3,4-d][1,3]thiazol-2-yl)-5-methylphenol or 3-[(S)-2,2-difluorocyclopropyl]-2-(5-{[(3R,5R)-5-fluoro-1-methylpiperidin-3-yl]amino}-2H-pyrazolo[3,4-d][1,3]thiazol-2-yl)-5-methylphenol (tR1)] | – | 15 nM | > 30 µM

Second part, the molecule after the results:

IC50 (NF-κB pathway; [1]) | IC50 (NLRP3 inflammasome) | IC50 (NF-κB pathway; THP-1 macrophages) | SMILES
> 10 µM | 590 nM | – | Cc1cc(C)c(-n2cc3sc(N[C@H]4COC[C@@H]4F)nc3n2)c(O)c1 (racemic) [Example 121, racemic mixture of 2-(5-{[(3R,4S)-4-fluorooxolan-3-yl]amino}-2H-pyrazolo[3,4-d][1,3]thiazol-2-yl)-3,5-dimethylphenol and 2-(5-{[(3S,4R)-4-fluorooxolan-3-yl]amino}-2H-pyrazolo[3,4-d][1,3]thiazol-2-yl)-3,5-dimethylphenol]
> 30 µM | 580 nM | – | Cc1cc(C)c(-n2cc3sc(N[C@H]4COC[C@H]4F)nc3n2)c(O)c1 (racemic) [Example 122, racemic mixture of 2-(5-{[(3R,4R)-4-fluorooxolan-3-yl]amino}-2H-pyrazolo[3,4-d][1,3]thiazol-2-yl)-3,5-dimethylphenol and 2-(5-{[(3S,4S)-4-fluorooxolan-3-yl]amino}-2H-pyrazolo[3,4-d][1,3]thiazol-2-yl)-3,5-dimethylphenol]
> 30 µM | 43 nM | – | Cc1cc(C)c(-n2cc3sc(N[C@@H]4CCCN(C5CCOC5)C4)nc3n2)c(O)c1 (single isomer, unassigned) [Example 71, 3,5-dimethyl-2-[5-({(3R)-1-[(S)-oxolan-3-yl]piperidin-3-yl}amino)-2H-pyrazolo[3,4-d][1,3]thiazol-2-yl]phenol or 3,5-dimethyl-2-[5-({(3R)-1-[(R)-oxolan-3-yl]piperidin-3-yl}amino)-2H-pyrazolo[3,4-d][1,3]thiazol-2-yl]phenol (tR1)]
– | 29 nM | > 30 µM | Cc1cc(C)c(-n2cc3sc(N[C@@H]4CCCN(C5CCOC5)C4)nc3n2)c(O)c1 (single isomer, unassigned) [Example 72, 3,5-dimethyl-2-[5-({(3R)-1-[(S)-oxolan-3-yl]piperidin-3-yl}amino)-2H-pyrazolo[3,4-d][1,3]thiazol-2-yl]phenol or 3,5-dimethyl-2-[5-({(3R)-1-[(R)-oxolan-3-yl]piperidin-3-yl}amino)-2H-pyrazolo[3,4-d][1,3]thiazol-2-yl]phenol (tR2)]
> 30 µM | 860 nM | – | Cc1cc(C)c(-n2cc3sc(N[C@@H]4C[C@@H](F)CN(C5CCOC5)C4)nc3n2)c(O)c1 (single isomer, unassigned) [Example 73, 2-[5-({(3R,5R)-5-fluoro-1-[(S)-oxolan-3-yl]piperidin-3-yl}amino)-2H-pyrazolo[3,4-d][1,3]thiazol-2-yl]-3,5-dimethylphenol or 2-[5-({(3R,5R)-5-fluoro-1-[(R)-oxolan-3-yl]piperidin-3-yl}amino)-2H-pyrazolo[3,4-d][1,3]thiazol-2-yl]-3,5-dimethylphenol (tR1)]
– | 560 nM | > 30 µM | Cc1cc(C)c(-n2cc3sc(N[C@@H]4C[C@@H](F)CN(C5CCOC5)C4)nc3n2)c(O)c1 (single isomer, unassigned) [Example 74, 2-[5-({(3R,5R)-5-fluoro-1-[(S)-oxolan-3-yl]piperidin-3-yl}amino)-2H-pyrazolo[3,4-d][1,3]thiazol-2-yl]-3,5-dimethylphenol or 2-[5-({(3R,5R)-5-fluoro-1-[(R)-oxolan-3-yl]piperidin-3-yl}amino)-2H-pyrazolo[3,4-d][1,3]thiazol-2-yl]-3,5-dimethylphenol (tR2)]
> 30 µM | 550 nM | – | Cc1cc(C)c(-n2cc3sc(N[C@H]4COC[C@@H]4F)nc3n2)c(O)c1 (single isomer, unassigned) [Example 142, 2-(5-{[(3R,4S)-4-fluorooxolan-3-yl]amino}-2H-pyrazolo[3,4-d][1,3]thiazol-2-yl)-3,5-dimethylphenol or 2-(5-{[(3S,4R)-4-fluorooxolan-3-yl]amino}-2H-pyrazolo[3,4-d][1,3]thiazol-2-yl)-3,5-dimethylphenol (tR1)]
